Assay [1] concerns Staphyloccocus epidermidis (ATCC 35984) biofilm. Kind of assay: Biofilm formation (crystal violet, 24-well plate). The conditions noted are these: 38 μM; 20 hours; FIG. 10B. It is filed as cell-based, Staphylococcus epidermidis. How it is done: Staphyloccocus aureus (ATCC 25904) or Staphyloccocus epidermidis (ATCC 35984) were grown overnight in TSB medium, before being diluted 100 fold in fresh TSB, and incubated aerobically at 37° C. until bacteria culture reached an OD600 of 0.6 (corresponding to approximately 1-3×10^8 CFU/ml). Bacteria cultures were then diluted to 1×10^4 CFU/ml in fresh TSB. Aliquots of 800 μl diluted bacteria suspensions were distributed in each well of a 24-well plate. Bacteria were allowed to adhere for 4 hours under static conditions at 37° C. After removing the media, wells were rinsed 2 times with PBS to eliminate planktonic bacteria and re-filled with TSB supplemented with 0.5% glucose containing Fluometacyl at desired concentration or DMSO alone (Ctrl). The 24-well plates were incubated at 37° C. for 20 hours. Wells were then washed and stained with 0.5% (w/v) crystal violet for 30 minutes and rinsed with PBS 4 times. The dye was solubilized by adding 20% acetic acid (v/v in water) before reading absorbance at 595 nm. FIG. 10A and FIG. 10B show Fluometacyl effect on S. aureus and S. epidermidis biofilm formation respectively at all concentrations tested.

Assay [2] relates to S. agalactiae (ATCC 12386). Put plainly: MIC determination (EUCAST, Mueller-Hinton broth). Type of assay: cell-based. The conditions noted are these: Streptococcus agalactiae, ATCC12386. How it is done:
Further experiments were conducted using S. agalactiae (ATCC 12386), as clinically relevant Gram-positive bacterial strains in order to determine the Minimal Inhibitory Concentration (MIC) which is the minimal concentration required to prevent bacterial growth; the Minimal Bactericidal Concentration (MBC) which determines the lowest concentration at which an antimicrobial agent kill a particular microorganism and a Minimum Duration for killing 99.9% bacteria (MDK99.9) which is a tolerance metric according to the EUCAST.
MIC determination: A single colony selected from the different strains of S. agalactiae (ATCC 12386) is resuspended and cultured in the appropriate medium overnight (O/N) in aerobic conditions (37° C. with 220 rpm shaking), next day a 1:100 inoculum in Mueller-Hinton broth (MHB) was incubated in aerobic conditions for 3 hr (OD=0.08-0.1) and an inoculum of 1:300 dilution, corresponding to 3×10^5 CFU/ml, was incubated in presence or absence of different concentrations of Triafluocyl in 1% DMSO. After O/N growth the OD of each culture was measured at 600 nm in a spectrophotometer (OD600). The MIC represents the concentration at which there is no visible growth of bacteria, i.e. ΔOD at 600 nm equal to zero (blank is the medium alone). MIC for Triafluocyl against S. agalactiae (ATCC 12386) was 40 μg/ml.

The test system of another assay is S. epidermidis. Kind of assay: Time-kill study in logarithmic phase. It is filed as cell-based, Staphylococcus epidermidis. As to the method:
To evaluate Triafluocyl antibacterial effect we have tested S. epidermidis liquid growth in the presence of different Triafluocyl concentrations in logarithmic phase. […] A 1:100 inoculum in 50 ml TSB of an O/N culture of S. epidermidis was cultured for 3 hr up to its logarithmic phase (OD600=0.26 and ≈3×10^8 CFU/ml). Bacteria were split in several tubes containing different concentrations of DMSO as vehicle alone or in combination with Triafluocyl in TSB and grown for 100 min at 37° C. with 220 rpm shaking, the OD600 was measured every 20 min.

In assay [3] the test system is S. epidermidis mature biofilm. Kind of assay: Mature biofilm (24-hour) treatment, LIVE/DEAD BacLight staining. Type of assay: cell-based, Staphylococcus epidermidis. To be noted: 24 hr treatment of 24-hour biofilm. The text has this:
In another experiment we let adhere 0.5×10^8 CFU/ml S. epidermidis cells for 4 hr and let the biofilm form for additional 24 hr in presence of 0.25% glucose, at this point we treated the biofilm with several concentrations of Triafluocyl for 24 hr in TSB with 0.25% glucose and determined the viable count (FIG. 7) as well as the percentage of live cells using the BacLight bacterial viability kit (Molecular Probes).
In the same experiment we also determined the percentage of live and dead bacteria. To do so we followed the procedure of the kit LIVE/DEAD from Molecular Probes. Briefly, the biofilm was resuspended in a solution of 0.9% NaCl and cells were stained with a mixture of SYTO9 (green fluorescence) and propidium iodide (PI) (red fluorescence) for 15 min in the dark. Stained cells were transferred in a 96-well plate and fluorescence was measured using the Enspire Spectrophotometer with excitation wavelength of 470 nm and emission spectra in the range of 490-700 nm. SYTO9 dye (green fluorescence 500-520 nm) penetrates all the cells (dead and live) and binds to DNA, while PI (red fluorescence in the range 610-630 nm) enters only in dead cells with a damaged cell membrane. When PI and SYTO9 are in the same cell the green fluorescence intensity decreases. […]

In assay [4] the test system is S. epidermidis mature biofilm. Put plainly: Mature biofilm (24-hour) treatment, viable count. Type of assay: cell-based, Staphylococcus epidermidis. The conditions noted are these: 50 μg/ml. The text has this:
In another experiment we let adhere 0.5×10^8 CFU/ml S. epidermidis cells for 4 hr and let the biofilm form for additional 24 hr in presence of 0.25% glucose, at this point we treated the biofilm with several concentrations of Triafluocyl for 24 hr in TSB with 0.25% glucose and determined the viable count (FIG. 7) as well as the percentage of live cells using the BacLight bacterial viability kit (Molecular Probes). For biofilm analysis, we first washed the biofilm to eliminate all planktonic bacteria and then the biofilm was detached mechanically using a scraper. To assure that the aggregates from the biofilm were completely dissociated, the suspension of cells was passed through a needle (0.5×16 mm) and a dilution was plated on TSA plates.

Converted amounts (≈) assume the structure as drawn.

In the case of `CCCSc1nc(N[C@@H]2C[C@H]2c2ccc(F)c(F)c2)c2nnn([C@@H]3C[C@H](O)[C@@H](O)[C@H]3O)c2n1` [Fluometacyl, (1S,2R,3S,4R)-4-[7-[[(1R,2S)-2-(3,4-Difluorophenyl)cyclopropyl]amino]-5-(propylthio)-3H-1,2,3-triazolo[4,5-d]pyrimidin-3-yl]-1,2,3-cyclopentanetriol], in assay [1], the “S. epidermidis biofilm formation” value is recorded as “could not form any biofilm”.
As a reminder, the MIC is the lowest concentration that inhibits growth of the organism. A high value points to a need for much substance. As to `CCCSc1nc(N[C@@H]2C[C@H]2c2ccc(F)c(F)c2)c2nnn([C@@H]3C[C@H](OCCO)[C@@H](O)[C@H]3O)c2n1` [Triafluocyl, (1S,2S,3R,5S)-3-[7-[(1R,2S)-2-(3,4-difluorophenyl)cyclopropylamino]-5-(propylthio)-3H-[1,2,3]-triazolo[4,5-d]pyrimidin-3-yl]-5-(2-hydroxyethoxy)-1,2-cyclopentanediol], inhibition of growth in assay [2] (MIC) required 40 µg/mL (≈ 76.5 µM). Moreover, the “S. epidermidis growth (OD600)” value in the assay on S. epidermidis (50 μg/ml) is “slight bacteriostatic activity”; in the assay with S. epidermidis (between 10 μg/ml and 20 μg/ml, compared to DMSO (0.25%), 100 min) it was “dose-dependent inhibition”. Besides, the “number of viable cells” value with S. epidermidis (50 μg/ml, at 80 min) is given as 3×10^8 CFU/ml. The “percentage of live bacteria in the biofilm” value in assay [3] (20 μg/ml) came to 80%; in assay [3] (50 μg/ml) it was 30%. Besides, the “number of viable cells in the biofilm” value in assay [4] (24 hr treatment of 24-hour biofilm, 0.25% glucose) was 1.5×10^5 CFU/ml. The “reduction of viable cells in the biofilm” value in assay [4] (24 hr treatment, versus control) was approximately 3 log.

Source of the values: US10905691B2, “Use of triazolo(4,5-d)pyrimidine derivatives for prevention and treatment of bacterial infection” (Universite de Liege, priority 2016, dated 2021).
